The values that follow come from patent US11136324B2, “Substituted imidazoles as apoptosis signal regulating kinase 1 inhibitors” (Jiangsu Hansoh Pharmaceutical Group Co., Ltd., priority 2017, dated 2021).

Structures are written as SMILES.

By IC50 is commonly meant the concentration at which inhibition is half-maximal. As a reminder, the MRT is a mean duration of stay, worked out from the concentration-time curve.

Data set [1] has as its system non-alcoholic steatohepatitis mice induced by HFD (high fat diet)+CCl4. The data set can be described thus: Effect on serum ALT and AST levels of non-alcoholic steatohepatitis mice induced by HFD+CCl4. To be noted: oral once a day for 28 days, versus solvent control group. Type of data set: in vivo, C57BL/6 mice. Details: concentration or dose not given beside the values. The text has this:
3. The effect of the compounds of the present invention on the ALT and AST levels of non-alcoholic steatohepatitis mice induced by HFD (high fat diet)+CCl4
The object of this test example is to determine whether the compounds of the present invention can down-regulate the ALT and AST levels in the serum of non-alcoholic steatohepatitis mice or not.
C57BL/6 mice were adaptively fed in a SPF (specific pathogen free) barrier for 3 to 7 days, and then fed with HFD feed with a feeding cycle of 8 weeks. At the fifth week of HFD feeding, the HFD-induced mice were randomly grouped according to body weight, and orally administrated with CCl4 twice a week for 4 weeks. At the day of modeling with CCl4, the test compounds were orally administrated once a day continuously for 28 days. The solvent control group was administrated with the corresponding solvent of the test compounds with an administration volume of 10 mL/kg. The mice were euthanized with CO2 48 hours after the last administration of CCl4, and the non-anticoagulated venous blood was collected from the heart. The whole blood was left to stand at room temperature for at least 30 minutes, and then centrifuged for 5 minutes at 4° C. at 5000 rpm to separate the serum. The serum was dispensed into two portions in 1.5 mL EP tubes, and stored at −80° C. for later use.
The ALT and AST levels in mice serum were determined using the alanine aminotransfease (ALT/GPT) kit and aspartate aminotransferase (AST/GOT) kit. The ALT (or AST) test substrate solution was preheated in a 37° C. incubator; 20 μL of substrate solution were pipetted into a 96-well plate, and 5 μL of serum were pipetted into the 96-well plate as test well. After mixing well, the plate was sealed using a sealing film, and placed into the 37° C. incubator to incubate for 30 min. The ALT (or AST) standard curve was formulated, and 25 μL of which were pipetted into the 96-well plate; 20 μL of […] were pipetted into the 96-well plate as control well; 20 μL of 2,4-dinitrophenylhydrazine solution were added to each well. After mixing well, the plate was sealed using a sealing film, and placed into the 37° C. incubator to incubate for 20 min. 200 μL of 0.4 M NaOH solution were added to each well. The plate was placed on a shaker to shake for 15 min, and then measured on the BioTek Synergy H1 instrument using OD detection program at a wavelength of 510 nm. The absolute OD value was calculated from the OD value of each well. Absolute OD value=OD value of measured well−OD value of control well. The absolute OD value was taken into the standard curve to obtain the ALT (or AST) content of the sample. Samples that exceed the standard curve range should be re-tested after diluting the serum to an appropriate concentration. Data processing: (% ALT reduction rate)=(solvent control group−test compound)/solvent control group×100%; (% AST reduction rate)=(solvent control group−test compound)/solvent control group×100%.

For the next data set, the target named is ASK1 kinase (Homo sapiens (Human), UniProt Q99683). Put plainly: ASK1 enzymatic test (TR-FRET). As to conditions: ASK1 kinase activity. Type of data set: biochemical. As to the method:
In this test, the fluorescence-resonance energy transfer (TR-FRET) method was used to determine the inhibition effect of the test compounds on ASK1 kinase activity, and the half maximal inhibitory concentration IC50 of the compounds on ASK1 kinase activity was obtained.
1) 1˜5 μL of ASK1 enzyme solution was added to a 384-well plate, and the final concentration of the enzyme was 0.220 nM.
2) 1˜5 μL of gradient-diluted compound solution was added.
3) 1˜5 μL of a substrate mixture containing substrate polypeptides (final concentration: 100˜5000 nM) and ATP (final concentration: 100˜1000 uM) were added.
4) The mixture was incubated at room temperature for 0.5 to 5 hours.
5) 10 μL of EDTA and test solution containing labeled antibody were added, and the plate was incubated at room temperature for 2 to 24 hours.
6) The fluorescence signal value of each well was determined by a microplate reader at about 615 nm and 665 nm.
7) The inhibition rate was calculated by the fluorescence signal value.
8) The IC50 of the compound was obtained by curve fitting according to the inhibition rate at different concentrations.

A short description of data set [2]: Pharmacokinetic (PK) assay in mice. Type of data set: in vivo. To be noted: Balb/c male mice, single intragastric administration, 5 mg/kg, plasma; for AUC(0-t) / AUC(0-inf) / half-life / MRT / Cmax: mouse, po; for AUC(0-t): read-out: Area under curve AUC0-t; for AUC(0-inf): read-out: Area under curve AUC0-∞; for half-life: read-out: Half-life t1/2 (converted); for MRT: read-out: Mean residence time MRT; for Cmax: read-out: Plasma concentration Cmax. Here is the method: 2. Pharmacokinetic (PK) Assay in Mice
The pharmacokinetic test of the preferred examples of the present invention in mice was carried out in Balb/c male mice (Shanghai Jiesijie Laboratory Animal Co., LTD).
Administration mode: single intragastric administration.
Administration dosage: 5 mg/10 ml/kg.
Formulation: 0.5% CMC-Na, ultrasonic dissolution.
Sampling points: 0.5, 1, 2, 4, 6, 8 and 24 hours after administration.
1) 0.1 mL of blood was taken from the orbit, placed in a K2EDTA tube, and centrifuged for 5˜20 min at room temperature at 1000˜3000×g to separate the plasma, which was then stored at −80° C.
2) 160 μL of acetonitrile was added to 40 μL of plasma sample for precipitation, and then the mixture was centrifuged for 5˜20 minutes at 500˜2000×g.
3) 100 μL, of processed supernatant was taken and analyzed by LC/MS/MS assay to determine the concentration of the test compound.
LC-MS/MS Assay: • Liquid chromatography condition: Shimadzu LC-20AD pump • Mass spectrometry condition: AB Sciex API 4000 mass spectrometer • Chromatographic column: phenomenex Gemiu 5 μm C18 50×4.6 mm • Mobile phase: solution A was 0.1% aqueous formic acid solution, and solution B was acetonitrile • Flow rate: 0.8 mL/min • Elution time: 0-3.5 minutes gradient elution
The main parameters were calculated using WinNonlin 6.1.

ASK1 kinase, sequence (Q99683 whole entry): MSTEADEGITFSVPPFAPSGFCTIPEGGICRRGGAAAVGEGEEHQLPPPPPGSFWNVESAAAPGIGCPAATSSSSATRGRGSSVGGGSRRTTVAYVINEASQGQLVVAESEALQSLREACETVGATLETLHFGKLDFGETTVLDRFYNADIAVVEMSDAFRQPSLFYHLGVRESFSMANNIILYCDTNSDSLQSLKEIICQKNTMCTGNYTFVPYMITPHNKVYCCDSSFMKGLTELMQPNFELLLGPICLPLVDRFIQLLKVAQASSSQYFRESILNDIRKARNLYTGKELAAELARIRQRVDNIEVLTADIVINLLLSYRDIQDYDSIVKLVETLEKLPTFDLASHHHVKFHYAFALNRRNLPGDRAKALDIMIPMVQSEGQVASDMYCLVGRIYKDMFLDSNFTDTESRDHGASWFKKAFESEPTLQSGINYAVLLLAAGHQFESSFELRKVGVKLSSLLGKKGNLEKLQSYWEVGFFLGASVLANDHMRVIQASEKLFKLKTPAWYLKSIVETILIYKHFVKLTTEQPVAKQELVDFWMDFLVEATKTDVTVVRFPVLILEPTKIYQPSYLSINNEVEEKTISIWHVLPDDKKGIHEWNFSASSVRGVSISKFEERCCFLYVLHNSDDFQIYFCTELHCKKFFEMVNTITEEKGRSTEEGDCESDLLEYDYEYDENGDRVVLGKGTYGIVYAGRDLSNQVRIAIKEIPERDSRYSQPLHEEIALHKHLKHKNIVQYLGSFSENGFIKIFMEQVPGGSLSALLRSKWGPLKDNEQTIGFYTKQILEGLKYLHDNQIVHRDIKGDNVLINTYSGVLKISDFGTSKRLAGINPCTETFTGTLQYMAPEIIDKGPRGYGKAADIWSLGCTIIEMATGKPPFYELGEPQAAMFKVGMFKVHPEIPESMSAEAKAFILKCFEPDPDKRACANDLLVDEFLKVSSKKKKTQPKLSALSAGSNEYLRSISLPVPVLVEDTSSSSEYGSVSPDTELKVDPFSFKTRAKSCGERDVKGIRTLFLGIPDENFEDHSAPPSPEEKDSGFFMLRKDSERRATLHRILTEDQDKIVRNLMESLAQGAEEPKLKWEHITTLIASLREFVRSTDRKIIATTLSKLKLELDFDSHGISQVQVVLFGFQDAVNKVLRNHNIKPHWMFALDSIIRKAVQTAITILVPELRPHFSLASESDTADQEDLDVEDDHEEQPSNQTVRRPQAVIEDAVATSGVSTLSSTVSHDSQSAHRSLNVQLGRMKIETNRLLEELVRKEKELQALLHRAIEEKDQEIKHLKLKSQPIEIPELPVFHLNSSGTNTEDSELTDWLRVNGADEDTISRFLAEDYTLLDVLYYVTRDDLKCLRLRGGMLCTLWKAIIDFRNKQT

Regarding `Cc1cc(F)c(C(=O)Nc2cccc(-c3nncn3C(C)C)n2)cc1-n1cnc(C2CC2)c1` [GS-4997, reference compound], in data set [1], the “ALT(U/L) reduction rate (%)” value turned out to be 40% and the “AST(U/L) reduction rate (%)” value is given as 35%.
For `Cc1cc2c(cc1-n1cnc(C3CC3)c1)C(=O)N(c1cccc(-c3nnc4n3[C@H](C(F)(F)F)CC4)n1)C2` [Example 65, (S)-6-(4-Cyclopropyl-1H-imidazol-1-yl)-5-methyl-2-(6-(5-(trifluoromethyl)-6,7-dihydro-5H-pyrrolo[2,1-c][1,2,4]triazol-3-yl)pyridin-2-yl)isoindolin-1-one], in data set [1], the “ALT(U/L) reduction rate (%)” value is 46% and the “AST(U/L) reduction rate (%)” value was 52%. On ASK1 kinase, this compound had an IC50 of 9.4 nM.
With `C=C[C@@H]1CCc2nnc(-c3cccc(NC(=O)c4cc(-n5cnc(C6CC6)c5)c(C)cc4F)n3)n21` [Example 37, (S)-5-(4-Cyclopropyl-1H-imidazol-1-yl)-2-fluoro-4-methyl-N-(6-(5-vinyl-6,7-dihydro-5H-pyrrolo[2,1-c][1,2,4]triazol-3-yl)pyridin-2-yl)benzamide], in data set [1], the “ALT(U/L) reduction rate (%)” value is 57% and the “AST(U/L) reduction rate (%)” value stood at 62%. This compound also registered a half-maximal inhibitory concentration (IC50) against ASK1 kinase of 3.5 nM. Moreover, in data set [2], the Peak time tmax is 0.5 h, the AUC(0-t) turned out to be 43900 ng·h/mL, the AUC(0-inf) is 48000 ng·h/mL and the half-life is 2.1 h. Besides, in data set [2], the MRT was 3.4 h and the Cmax was 11700 ng/mL.
Consider `Cc1cc(F)c(C(=O)Nc2cccc(-c3nnc4n3C3(CC4)CC3)n2)cc1-n1cnc(C2CC2)c1` [Example 61, 5-(4-Cyclopropyl-1H-imidazol-1-yl)-N-(6-(6′,7′-dihydrospiro[cyclopropane-1,5′-pyrrolo[2,1-c][1,2,4]triazol]-3′-yl)pyridin-2-yl)-2-fluoro-4-methylbenzamide], for which, in data set [1], the “ALT(U/L) reduction rate (%)” value was determined as 50% and the “AST(U/L) reduction rate (%)” value was 54%. The compound further yielded an IC50 at ASK1 kinase of 1.9 nM. Further, in data set [2], the Peak time tmax worked out at 1 h, the AUC(0-t) worked out at 68600 ng·h/mL, the AUC(0-inf) was determined as 68800 ng·h/mL and the half-life is 2.7 h. In addition, in data set [2], the MRT was determined as 4.5 h and the Cmax stood at 11400 ng/mL.
Take `C#C[C@@H]1CCc2nnc(-c3cccc(NC(=O)c4cc(-n5cnc(C6CC6)c5)c(C)cc4F)n3)n21` [Example 43, (S)-5-(4-Cyclopropyl-1H-imidazol-1-yl)-N-(6-(5-ethynyl-6,7-dihydro-5H-pyrrolo[2,1-c][1,2,4]triazol-3-yl)pyridin-2-yl)-2-fluoro-4-methylbenzamide]: in data set [1], the “ALT(U/L) reduction rate (%)” value amounted to 65% and the “AST(U/L) reduction rate (%)” value is 58%. Also, 1.9 nM corresponded to half-maximal inhibition at ASK1 kinase (IC50). Also, in data set [2], the Peak time tmax was determined as 0.5 h, the AUC(0-t) was 80900 ng·h/mL, the AUC(0-inf) came out at 81900 ng·h/mL and the half-life is 3.9 h. For the same compound, in data set [2], the MRT came out at 5.3 h and the Cmax worked out at 12200 ng/mL.
As for `Cc1cc(F)c(C(=O)Nc2cccc(-c3nnc4n3[C@H](C(F)(F)F)CC4)n2)cc1-n1cnc(C2CC2)c1` [Example 40, (S)-5-(4-Cyclopropyl-1H-imidazol-1-yl)-2-fluoro-4-methyl-N-(6-(5-(trifluoromethyl)-6,7-dihydro-5H-pyrrolo[2,1-c][1,2,4]triazol-3-yl)pyridin-2-yl)benzamide], in data set [1], the “ALT(U/L) reduction rate (%)” value is listed as 50% and the “AST(U/L) reduction rate (%)” value was found to be 65%. Also, the IC50 against ASK1 kinase is 1.9 nM. For the same compound, in data set [2], the Peak time tmax came to 0.5 h, the AUC(0-t) worked out at 26800 ng·h/mL, the AUC(0-inf) worked out at 28300 ng·h/mL and the half-life was 1.7 h. Besides, in data set [2], the MRT came out at 2.7 h and the Cmax stood at 10700 ng/mL.
As for `Cc1cc2c(cc1-n1cnc(C3CC3)c1)C(=O)N(c1cccc(-c3nnc4n3C3(CC4)CC3)n1)C2` [Example 64, 6-(4-Cyclopropyl-1H-imidazol-1-yl)-2-(6-(6′,7′-dihydrospiro[cyclopropane-1,5′-pyrrolo[2,1-c][1,2,4]triazol]-3′-yl)pyridin-2-yl)-5-methylisoindolin-1-one], in data set [1], the “ALT(U/L) reduction rate (%)” value came to 51% and the “AST(U/L) reduction rate (%)” value is on record as 47%. The compound also showed an IC50 at ASK1 kinase of 5.5 nM.
With `Cc1cc(F)c(C(=O)Nc2cccc(-c3nnc4n3[C@H](C)CC4)n2)cc1-n1cnc(C(C)(C)C)c1` [Example 15, (R)-5-(4-(tert-Butyl)-1H-imidazol-1-yl)-2-fluoro-4-methyl-N-(6-(5-methyl-6,7-dihydro-5H-pyrrolo[2,1-c][1,2,4]triazol-3-yl)pyridin-2-yl)benzamide], in data set [1], the “ALT(U/L) reduction rate (%)” value amounted to 54% and the “AST(U/L) reduction rate (%)” value was 58%. On ASK1 kinase, this compound returned an IC50 of 1.4 nM.
Turning to `COC[C@@H]1CCc2nnc(-c3cccc(NC(=O)c4cc(-n5cnc(C6CC6)c5)c(C)cc4F)n3)n21` [Example 11, (S)-5-(4-Cyclopropyl-1H-imidazol-1-yl)-2-fluoro-N-(6-(5-(methoxymethyl)-6,7-dihydro-5H-pyrrolo[2,1-c][1,2,4]triazol-3-yl)pyridin-2-yl)-4-methylbenzamide], the concentration for half-maximal inhibition (IC50) at ASK1 kinase was found to be 10.6 nM. Also, in data set [2], the Peak time tmax amounted to 1 h, the AUC(0-t) was found to be 29400 ng·h/mL, the AUC(0-inf) was determined as 29400 ng·h/mL and the half-life was 1.1 h. In data set [2], the MRT is 2.1 h and the Cmax was determined as 13200 ng/mL.
For the compound `CC[C@H]1CCc2nnc(-c3cccc(NC(=O)c4cc(-n5cnc(C6CC6)c5)c(C)cc4F)n3)n21` [Example 56, (S)-5-(4-Cyclopropyl-1H-imidazol-1-yl)-N-(6-(5-ethyl-6,7-dihydro-5H-pyrrolo[2,1-c][1,2,4]triazol-3-yl)pyridin-2-yl)-2-fluoro-4-methylbenzamide], half-maximal inhibition on ASK1 kinase (IC50) required 5 nM. For the same compound, in data set [2], the Peak time tmax turned out to be 1 h, the AUC(0-t) stood at 38600 ng·h/mL, the AUC(0-inf) came out at 42500 ng·h/mL and the half-life is 2.4 h. In data set [2], the MRT came out at 3.6 h and the Cmax amounted to 9940 ng/mL.
